The record followed here is ChEMBL document CHEMBL4819053, “Alkyne-Bridged α-Conotoxin Vc1.1 Potently Reverses Mechanical Allodynia in Neuropathic Pain Models” (J Med Chem, 2021).

The assay deals with Rattus norvegicus. Nature of the assay: Antiallodynic activity in Sprague-Dawley rat model of neuropathic mechanical allodynia assessed as increase in paw withdrawal threshold at 100 mg/kg, po measured at 2 to 6 hrs post last dose by von Frey test. Format: functional, organism-based. Particulars: time 2-6 hrs.

Active and inactive are the calls of the source.

With `NCC1(CC(=O)O)CCCCC1`, the result was Active.
